{"source": "patent US11168086B2", "about": "“Methods of synthesizing pyrazine compounds” (Hoffmann-La Roche Inc., priority 2015, dated 2021)", "data": [{"system": "HBV", "assay": "HBV inhibition assay: anti-HBV activity in vitro in HepG2.2.15 cells (extracellular HBV DNA by qPCR)", "type": "cell-based", "conditions": "Hepatitis B virus, 120 h, five days after compound treatment, extracellular HBV DNA in culture supernatant by qPCR, concentration at which HBV replication is inhibited by 50%", "how_it_was_run": "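HepG2.2.15 cells (stably carrying HBV genome) treated with half-log serially diluted compounds at 0.5% DMSO final for five days. Extracellular HBV DNA in supernatant quantified by qPCR after Proteinase K digestion; EC50 is concentration giving 50% inhibition of replication.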", "units": {"EC50": "µM"}, "values": [{"molecule": "CC1COC(=O)N(c2cnn3c2CN(C(=O)Nc2cc(F)c(F)c(F)c2)[C@@H](C)C3)C1", "note": "(stereo partly drawn) [Example 278, (6S)-6-methyl-3-(5-methyl-2-oxo-1,3-oxazinan-3-yl)-N-(3,4,5-trifluorophenyl)-6,7-dihydro-4H-pyrazolo[1,5-a]pyrazine-5-carboxamide]", "EC50": 0.027}, {"molecule": "C[C@H]1Cn2ncc(N3CN(c4ncccn4)CC3=O)c2CN1C(=O)Nc1cc(F)c(F)c(F)c1", "note": "[Example 281, (6S)-6-methyl-3-(5-oxo-3-pyrimidin-2-yl-imidazolidin-1-yl)-N-(3,4,5-trifluorophenyl)-6,7-dihydro-4H-pyrazolo[1,5-a]pyrazine-5-carboxamide]", "EC50": 0.052}, {"molecule": "C[C@H]1Cn2ncc(N3CC(c4nnco4)CC3=O)c2CN1C(=O)Nc1cc(F)c(F)c(F)c1", "note": "(stereo partly drawn) [Example 282, (6S)-6-methyl-3-[4-(1,3,4-oxadiazol-2-yl)-2-oxo-pyrrolidin-1-yl]-N-(3,4,5-trifluorophenyl)-6,7-dihydro-4H-pyrazolo[1,5-a]pyrazine-5-carboxamide]", "EC50": 0.057}, {"molecule": "Cc1nnc(C2CC(=O)N(c3cnn4c3CN(C(=O)Nc3cc(F)c(F)c(F)c3)[C@@H](C)C4)C2)o1", "note": "(stereo partly drawn) [Example 283, (6S)-6-methyl-3-[4-(5-methyl-1,3,4-oxadiazol-2-yl)-2-oxo-pyrrolidin-1-yl]-N-(3,4,5-trifluorophenyl)-6,7-dihydro-4H-pyrazolo[1,5-a]pyrazine-5-carboxamide]", "EC50": 0.047}, {"molecule": "Cc1noc(C2CC(=O)N(c3cnn4c3CN(C(=O)Nc3cc(F)c(F)c(F)c3)[C@@H](C)C4)C2)n1", "note": "(stereo partly drawn) [Example 284, (6S)-6-methyl-3-[4-(3-methyl-1,2,4-oxadiazol-5-yl)-2-oxo-pyrrolidin-1-yl]-N-(3,4,5-trifluorophenyl)-6,7-dihydro-4H-pyrazolo[1,5-a]pyrazine-5-carboxamide]", "EC50": 0.01}, {"molecule": "Cc1nc(C2CC(=O)N(c3cnn4c3CN(C(=O)Nc3cc(F)c(F)c(F)c3)[C@@H](C)C4)C2)no1", "note": "(stereo partly drawn) [Example 285, (6S)-6-methyl-3-[4-(5-methyl-1,2,4-oxadiazol-3-yl)-2-oxo-pyrrolidin-1-yl]-N-(3,4,5-trifluorophenyl)-6,7-dihydro-4H-pyrazolo[1,5-a]pyrazine-5-carboxamide]", "EC50": 0.007}, {"molecule": "C[C@H]1Cn2ncc(N3CC(c4nnc(C(F)(F)F)o4)CC3=O)c2CN1C(=O)Nc1cc(F)c(F)c(F)c1", "note": "(stereo partly drawn) [Example 286, (6S)-6-methyl-3-[2-oxo-4-[5-(trifluoromethyl)-1,3,4-oxadiazol-2-yl]pyrrolidin-1-yl]-N-(3,4,5-trifluorophenyl)-6,7-dihydro-4H-pyrazolo[1,5-a]pyrazine-5-carboxamide]", "EC50": 0.026}, {"molecule": "C[C@H]1Cn2ncc(N3CC(c4cncs4)CC3=O)c2CN1C(=O)Nc1cc(F)c(F)c(F)c1", "note": "(stereo partly drawn) [Example 290, (6S)-6-methyl-3-(2-oxo-4-thiazol-5-yl-pyrrolidin-1-yl)-N-(3,4,5-trifluorophenyl)-6,7-dihydro-4H-pyrazolo[1,5-a]pyrazine-5-carboxamide]", "EC50": 0.011}, {"molecule": "C[C@H]1Cn2ncc(N3CC(c4nccs4)CC3=O)c2CN1C(=O)Nc1cc(F)c(F)c(F)c1", "note": "(stereo partly drawn) [Example 291, (6S)-6-methyl-3-(2-oxo-4-thiazol-2-yl-pyrrolidin-1-yl)-N-(3,4,5-trifluorophenyl)-6,7-dihydro-4H-pyrazolo[1,5-a]pyrazine-5-carboxamide]", "EC50": 0.007}, {"molecule": "C[C@H]1Cn2ncc(N3CCCOC3=O)c2CN1C(=O)Nc1cc(F)c(F)c(F)c1", "note": "[Example 292, (6S)-6-methyl-3-(2-oxo-1,3-oxazinan-3-yl)-N-(3,4,5-trifluorophenyl)-6,7-dihydro-4H-pyrazolo[1,5-a]pyrazine-5-carboxamide]", "EC50": 0.048}, {"molecule": "C[C@H]1Cn2ncc(N3CC(C)(C)COC3=O)c2CN1C(=O)Nc1cc(F)c(F)c(F)c1", "note": "[Example 294, (6S)-3-(5,5-dimethyl-2-oxo-1,3-oxazinan-3-yl)-6-methyl-N-(3,4,5-trifluorophenyl)-6,7-dihydro-4H-pyrazolo[1,5-a]pyrazine-5-carboxamide]", "EC50": 0.013}, {"molecule": "COCC1CC(=O)N(c2cnn3c2CN(C(=O)Nc2ccc(F)c(Cl)c2)[C@@H](C)C3)C1", "note": "(stereo partly drawn) [Example 295, (6S)—N-(3-chloro-4-fluoro-phenyl)-3-[4-(methoxymethyl)-2-oxo-pyrrolidin-1-yl]-6-methyl-6,7-dihydro-4H-pyrazolo[1,5-a]pyrazine-5-carboxamide]", "EC50": 0.033}, {"molecule": "C[C@H]1Cn2ncc(N3CC4(CCOCC4)CC3=O)c2CN1C(=O)Nc1ccc(F)c(Cl)c1", "note": "[Example 296, (6S)—N-(3-chloro-4-fluoro-phenyl)-6-methyl-3-(3-oxo-8-oxa-2-azaspiro[4.5]decan-2-yl)-6,7-dihydro-4H-pyrazolo[1,5-a]pyrazine-5-carboxamide]", "EC50": 0.03}, {"molecule": "CC1CCN(c2cnn3c2CN(C(=O)Nc2ccc(F)c(Cl)c2)[C@@H](C)C3)C1=O", "note": "(stereo partly drawn) [Example 297, (6S)—N-(3-chloro-4-fluoro-phenyl)-6-methyl-3-(3-methyl-2-oxo-pyrrolidin-1-yl)-6,7-dihydro-4H-pyrazolo[1,5-a]pyrazine-5-carboxamide]", "EC50": 0.068}, {"molecule": "C[C@H]1Cn2ncc(N3CC(CO)CC3=O)c2CN1C(=O)Nc1ccc(F)c(Cl)c1", "note": "(stereo partly drawn) [Example 298, (6S)—N-(3-chloro-4-fluoro-phenyl)-3-[4-(hydroxymethyl)-2-oxo-pyrrolidin-1-yl]-6-methyl-6,7-dihydro-4H-pyrazolo[1,5-a]pyrazine-5-carboxamide]", "EC50": 0.104}, {"molecule": "COCC1CC(=O)N(c2cnn3c2CN(C(=O)Nc2cc(F)c(F)c(F)c2)[C@@H](C)C3)C1", "note": "(stereo partly drawn) [Example 299, (6S)-3-[4-(methoxymethyl)-2-oxo-pyrrolidin-1-yl]-6-methyl-N-(3,4,5-trifluorophenyl)-6,7-dihydro-4H-pyrazolo[1,5-a]pyrazine-5-carboxamide]", "EC50": 0.08}, {"molecule": "CCC1CC(=O)N(c2cnn3c2CN(C(=O)Nc2ccc(F)c(Cl)c2)[C@@H](C)C3)C1", "note": "(stereo partly drawn) [Example 302, (6S)—N-(3-chloro-4-fluoro-phenyl)-3-(4-ethyl-2-oxo-pyrrolidin-1-yl)-6-methyl-6,7-dihydro-4H-pyrazolo[1,5-a]pyrazine-5-carboxamide]", "EC50": 0.02}, {"molecule": "C[C@H]1Cn2ncc(N3CC4(CCOC4)CC3=O)c2CN1C(=O)Nc1ccc(F)c(Cl)c1", "note": "(stereo partly drawn) [Example 303, (6S)—N-(3-chloro-4-fluoro-phenyl)-6-methyl-3-(8-oxo-2-oxa-7-azaspiro[4.4]nonan-7-yl)-6,7-dihydro-4H-pyrazolo[1,5-a]pyrazine-5-carboxamide]", "EC50": 0.081}, {"molecule": "C[C@H]1Cn2ncc(N3CC(c4ccccc4)CC3=O)c2CN1C(=O)Nc1cc(F)c(F)c(F)c1", "note": "(stereo partly drawn) [Example 309, (6S)-6-methyl-3-(2-oxo-4-phenyl-pyrrolidin-1-yl)-N-(3,4,5-trifluorophenyl)-6,7-dihydro-4H-pyrazolo[1,5-a]pyrazine-5-carboxamide]", "EC50": 0.005}, {"molecule": "C[C@H]1Cn2ncc(N3CC(N(C)C(=O)c4ncco4)CC3=O)c2CN1C(=O)Nc1cc(F)c(F)c(F)c1", "note": "(stereo partly drawn) [Example 318, N-methyl-N-[1-[(6S)-6-methyl-5-[(3,4,5-trifluorophenyl)carbamoyl]-6,7-dihydro-4H-pyrazolo[1,5-a]pyrazin-3-yl]-5-oxo-pyrrolidin-3-yl]oxazole-2-carboxamide]", "EC50": 0.045}, {"molecule": "CC1CN(c2cnn3c2CN(C(=O)Nc2ccc(F)c(Cl)c2)[C@@H](C)C3)C(=O)O1", "note": "(stereo partly drawn) [Example 321, (6S)—N-(3-chloro-4-fluoro-phenyl)-6-methyl-3-(5-methyl-2-oxo-oxazolidin-3-yl)-6,7-dihydro-4H-pyrazolo[1,5-a]pyrazine-5-carboxamide]", "EC50": 0.047}]}]}
